BindingDB's records for doi:10.1021/cb0500042 (Suny Stony Brook, 2006)

Experiments:
[1] = biological target: T1, Enoyl-[acyl-carrier-protein] reductase [NADH] (Mycobacterium tuberculosis (strain ATCC 25618 / H37Rv), UniProt P9WGR1); experiment: Enoyl-CoA Reductase Inhibition Assay; conditions: pH 6.8; 22 °C
T1 sequence (P9WGR1 whole entry): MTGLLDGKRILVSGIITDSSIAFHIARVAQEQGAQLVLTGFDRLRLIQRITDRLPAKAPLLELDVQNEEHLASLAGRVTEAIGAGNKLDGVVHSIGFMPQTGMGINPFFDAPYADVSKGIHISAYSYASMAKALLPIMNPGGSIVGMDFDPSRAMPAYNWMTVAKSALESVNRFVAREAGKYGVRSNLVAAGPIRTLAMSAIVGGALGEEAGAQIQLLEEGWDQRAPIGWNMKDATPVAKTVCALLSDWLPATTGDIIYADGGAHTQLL
Method: The assay measured the NADH-dependent catalysis of a DD-CoA substrate as a decrease in 340 nm absorbance resulting from conversion of NADH to NAD. The absorbance OD readings were taken on a microreader. The IC50 values were determined using at least eight concentrations, with each concentration assayed in triplicate under saturating substrate conditions. The values were calculated from plots of enzyme activity versus the log of the inhibitor concentration using the GraFit IC50 four-parameter fit software.

[2] = biological target: T1, Enoyl-[acyl-carrier-protein] reductase [NADH]; experiment: Measurement of Inhibition Constants; conditions: pH 6.8; 22 °C
Method: Inhibition constants (Ki) were calculated by determining the kcat and Km (DDCoA) values at several fixed inhibitor concentrations. The inhibition data were analyzed using the standard equation for uncompetitive inhibition. For compounds with Ki values in the low nanomolar range, initial velocities were determined at a fixed substrate concentration and the data were fit to the equation: vi/v0 = (Km + S)/(Km + S[1 + I/ Ki]). Where vi and v0 are the initial velocities in the presence and absence of inhibitor. […] Data fitting was performed using Grafit 4.0 (Erithacus Software Ltd.).

Compound | IC50 [1] [nM] | Ki [2] [nM]
CCCCCCCCCCCCCCc1ccc(Oc2ccccc2)c(O)c1 [2-phenoxy-5-tetradecylphenol] | 150 | 30.3
CCCCCCCCc1ccc(Oc2ccccc2)c(O)c1 [5-Octyl-2-phenoxy-phenol] |  | 1.1
CCCCCCc1ccc(Oc2ccccc2)c(O)c1 [5-hexyl-2-phenoxyphenol] | 11 | 9.4
CCCCCc1ccc(Oc2ccccc2)c(O)c1 [5-pentyl-2-phenoxylphenol] |  | 11.8
NC(=O)C1=CN([C@@H]2O[C@H](CO[P@@](=O)(O)O[P@@](=O)(O)OC[C@H]3O[C@@H](n4cnc5c(N)ncnc54)[C@H](O)[C@@H]3O)[C@@H](O)[C@H]2O)C=C[C@@H]1C(=O)c1ccncc1 [[[(2R,3S,4R,5R)-5-(6-aminopurin-9-yl)-3,4-dihydroxy-oxolan-2-yl]methoxy-hydroxy-phosphoryl]oxy-[[(2R,3S,4R,5R)-5-[(4S)-3-carbamoyl-4-(pyridine-4-carbonyl)-4H-pyridin-1-yl]-3,4-dihydroxy-oxolan-2-yl]methoxy]phosphinic acid] |  | 0.75
